This note sets out measurements from patent US20240269299A1, “POLYETHYLENE GLYCOL-DRUG CONJUGATE AND USE THEREOF” (CHONGQING UPGRA BIOTECHNOLOGY CO. LTD., priority 2021, published 2024).

This assay relates to choroidal neovascularization (CNV). The assay can be described thus: Laser modeling of choroidal neovascularization (CNV) in mice. It is filed as in vivo, C57BL/6J suckling mice. Particulars: 1 μL injected into vitreous space one week after photocoagulation. The protocol:
Experimental animals: C57BL/6J suckling mice, where the mice were all female and subjected to laser modeling three days after birth.
A mixed solution of 20% V/V PEG300, 20% V/V anhydrous ethanol and 60% V/V normal saline was used as a solvent for compound 39-205 to prepare a 20 mg/mL solution for use in mice No. 6 and No. 7, respectively. A saline solution of aflibercept was used as a positive control for mouse No. 5.
After the mice were anesthetized, a semiconductor laser was used to perform retinal photocoagulation around optic discs under a retinoscope. An irradiation site was between blood vessels that were one optic disc diameter away from the optic disc. The generation of bubbles after photocoagulation was an indicator of breaking Bruch's membrane. The laser modeling conditions for mice No. 6 and No. 7 were 350 mw and 200 ms, and the laser modeling conditions for mouse No. 5 were 300 mw, 260 ms, and the photocoagulation time was 1 s. One week after photocoagulation, medication treatments started for the mice. The administration method was: 1 μL of each of the 20 mg/mL solution of compound 39-205 prepared above and a normal saline solution of aflibercept was injected into vitreous space.

With aflibercept, the “area of the laser spot after administration” value (compound 39-205 as 20 mg/mL solution, aflibercept in normal saline, FIG. 1 to FIG. 4) is “did not significantly reduce”. Under “mouse No. 5, FIG. 1”, the “fundus angiography after administration” value is “not significantly improved”.
